This assay deals with T1, RTN4 (Homo sapiens, UniProt Q9NQC3).
T1 construct: directly in native proteomes; endogenous in cells; host or cells: MDA-MB-231
T1 sequence (Q9NQC3 1-1192): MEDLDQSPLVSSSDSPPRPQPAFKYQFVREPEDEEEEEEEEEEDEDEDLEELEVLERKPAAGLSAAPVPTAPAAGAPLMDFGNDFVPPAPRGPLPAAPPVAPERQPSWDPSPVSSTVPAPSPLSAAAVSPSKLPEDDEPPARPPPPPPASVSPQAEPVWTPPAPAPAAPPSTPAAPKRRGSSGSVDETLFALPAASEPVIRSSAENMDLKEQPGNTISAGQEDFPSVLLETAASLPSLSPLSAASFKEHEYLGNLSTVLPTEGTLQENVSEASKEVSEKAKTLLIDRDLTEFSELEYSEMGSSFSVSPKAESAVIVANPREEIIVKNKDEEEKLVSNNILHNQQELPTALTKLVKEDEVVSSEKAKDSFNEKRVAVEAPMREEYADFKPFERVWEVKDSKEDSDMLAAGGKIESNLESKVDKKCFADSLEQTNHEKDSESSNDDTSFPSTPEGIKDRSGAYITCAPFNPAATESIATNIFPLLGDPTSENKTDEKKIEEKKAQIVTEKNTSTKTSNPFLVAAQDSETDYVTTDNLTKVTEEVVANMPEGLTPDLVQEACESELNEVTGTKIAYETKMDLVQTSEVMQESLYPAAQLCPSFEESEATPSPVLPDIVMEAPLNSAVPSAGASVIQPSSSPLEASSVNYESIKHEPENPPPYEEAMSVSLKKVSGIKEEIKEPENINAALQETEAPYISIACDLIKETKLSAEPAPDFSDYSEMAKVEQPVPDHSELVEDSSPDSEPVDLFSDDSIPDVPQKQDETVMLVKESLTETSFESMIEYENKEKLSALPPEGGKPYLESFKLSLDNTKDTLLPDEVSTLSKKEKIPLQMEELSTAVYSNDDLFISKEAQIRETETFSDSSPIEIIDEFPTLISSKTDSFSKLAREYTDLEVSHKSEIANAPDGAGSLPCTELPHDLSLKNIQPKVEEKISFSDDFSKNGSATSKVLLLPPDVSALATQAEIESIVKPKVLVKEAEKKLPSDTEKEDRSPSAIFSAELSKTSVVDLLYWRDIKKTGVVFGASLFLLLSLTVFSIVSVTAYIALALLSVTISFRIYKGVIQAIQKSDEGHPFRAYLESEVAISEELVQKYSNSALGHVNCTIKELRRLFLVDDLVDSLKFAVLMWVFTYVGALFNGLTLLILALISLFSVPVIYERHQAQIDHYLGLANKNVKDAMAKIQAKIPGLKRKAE
As to the kind of experiment: competitive isoTOP-ABPP, MDA-MB-231 soluble proteome. The format is binding. The note with it: 100 μM LDE, 60 min; peptide YSNSALGHVNC*TIK. The procedure:
Here, we envisioned that isoTOP-ABPP could be advanced to discover and quantify reactions between cysteines in proteomes and any electrophilic compound. In this advanced, ‘competitive’ version of isoTOP-ABPP (FIG. 1a), a proteome is treated with an electrophile (experimental sample) or DMSO (control sample). Both proteomic samples are then labeled with the IA probe and conjugated by CuAAC to light and heavy azide-biotin tags, respectively. The light and heavy samples are then mixed and subjected to our described isoTOP-ABPP protocol for enrichment, identification, and quantification of IA-labeled cysteines^30. Electrophile-modified cysteines are quantified by measuring the MS1 chromatographic peak ratios (R values) for heavy (DMSO-treated) over light (electrophile-treated) samples, with higher R values reflecting greater sensitivity to the electrophile. In this format, competitive isoTOP-ABPP can assay electrophiles against 1000+ cysteines in parallel directly in native proteomes without requiring any chemical modification to the electrophiles themselves.
Competitive isoTOP-ABPP experiments were performed in quadruplicate using the soluble proteome of the human breast cancer cell line MDA-MB-231 cell line. Proteomes were treated with 100 μM HNE, 15d-PGJ2, or 2-HD, for 60 minutes, followed by the IA-probe (100 μM, 60 min) A total of ˜1400 cysteine reactivities were quantified across the aggregate data set, with at least 900 cysteine reactivities quantified for each LDE (FIG. 2a) more than 750 of which were quantified for all the three electrophiles.
The MDA-MB-231 cell proteome was treated with varying concentrations of HNE (5, 10, 50, 100 and 500 μM) for 60 min and then the IA-labeling profile of each reaction was quantitatively compared to a DMSO-control sample by isoTOP-ABPP.
HNE was purchased from EMD biosciences, 15d-PGJ2 was purchased from Cayman Chemicals and 2-HD was purchased from Santa Cruz Biotechnology. Proteome samples were diluted to a 4 mg protein/mL solution in PBS. For each profiling experiment, one aliquot of the proteome sample (0.5 mL) was treated with 100 μM of LDE using 5 μL of a 10 mM stock and the other aliquot was treated with 5 μL of either ethanol (for HNE and 15d-PGJ2) or DMSO (for 2-HD) as control. For the concentration-dependent profiling experiments using HNE, aliquots of the proteomes (0.5 mL each) were treated with 5, 10, 50, 100 and 500 μM of HNE using 5 μL of 0.5, 1.0, 5, 10 and 50 mM of stock solution, respectively. After 60 minutes of treatment at room temperature, both the LDE-treated and control aliquots were passed through a NAP-5 Sephadex column (GE healthcare) to remove any unreacted LDE. The volume of each aliquot was increased to 1 mL with the concentration at 2 mg/mL after this step.
Each of the control and LDE-treated proteome samples (˜2 mg protein/mL in 1 mL volume) was treated with 100 μM of IA-probe using 10 μL of a 10 mM stock in DMSO. The labeling reactions were incubated at room temperature for 1 hour. Click chemistry (acetylene-azide cycloaddition) was performed by the addition of 100 μM of either the Heavy-TEV-Tag (for the control sample) or Light-TEV-Tag (for the LDE-treated sample) (20 μL of a 5 mM stock), 1 mM TCEP (fresh 50× stock in water), 100 μM ligand (17× stock in DMSO:t-Butanol 1:4) and 1 mM CuSO4 (50× stock in water). Samples were allowed to react at room temperature for 1 hour. After the click chemistry step, the light and heavy-labeled samples were mixed together and centrifuged (5900×g, 4 min, 4° C.) to pellet the precipitated proteins.
The pellets were washed twice in cold MeOH, after which the pellet was solubilized in PBS containing 1.2% SDS via sonication and heating (5 min, 80° C.). Samples were subjected to streptavidin enrichment of probe-labeled proteins, sequential on-bead trypsin and TEV digestion, and liquid chromatography-mass spectrometry (LC-MS) analysis according to the published isoTOP-ABPP protocol^30. […]

This note sets out measurements from patent US10782295B2, “Cysteine-reactive ligand discovery in proteomes” (THE SCRIPPS RESEARCH INSTITUTE, priority 2013, dated 2020).

Consider `CCCCCCCCCCCCC/C=C/C=O` [2-HD, 2-trans-hexadecenal], for which the “R value (isoTOP-ABPP ratio heavy/light) for IA-labeled cysteine of RTN4” value is reported as 1.1.
In the case of `CCCCCC(O)/C=C/C=O` (stereo not drawn) [4-HNE, 4-Hydroxynonenal] it was 11.78.
On to `CCCCC/C=C/C=C1/C(=O)C=C[C@@H]1C/C=C\CCCC(=O)O` [PGJ2, 15-deoxy-Δ12,14-prostaglandin J2], for which the “R value (isoTOP-ABPP ratio heavy/light) for IA-labeled cysteine of RTN4” value came out at 2.93.
